In the kinase profiling compilation of Christmann-Franck et al. (2016):

Tests used:
Experiment in all cases: KINOMEscan competition binding
Details in all cases: compound 10.0 µM
[1] = tested on: LRRK2 (human), Q5S007 [G2019S]
SIK3 (human) = SIK3 (human) (UniProt Q9Y2K2)
CDK13 (human) = CDK13 (human) (UniProt Q14004)
[2] = tested on: PIK3CA (human), P42336 [C420R]
MTOR (human) = MTOR (human) (UniProt P42345)
RPS6KB1 (human) = RPS6KB1 (human) (UniProt P23443)
DSTYK (human) = DSTYK (human) (UniProt Q6XUX3)
ERN1 (human) = ERN1 (human) (UniProt O75460)
NIM1 (human) = NIM1 (human) (UniProt Q8IY84)
[3] = tested on: PIK3CA (human), P42336 [E545A]
[4] = tested on: PIK3CA (human), P42336 [H1047L]
MAP3K2 (human) = MAP3K2 (human) (UniProt Q9Y2U5)
DYRK1A (human) = DYRK1A (human) (UniProt Q13627)
PKN3 (M.tuberculosis) = PKN3 (M.tuberculosis) (UniProt Q6P5Z2)
CASK (human) = CASK (human) (UniProt O14936)
HIPK4 (human) = HIPK4 (human) (UniProt Q8NE63)
GRK7 (human) = GRK7 (human) (UniProt Q8WTQ7)
[5] = tested on: MET (human), P08581 [Y1235D]
MAP2K5 (human) = MAP2K5 (human) (UniProt Q13163)
PRPF4B (human) = PRPF4B (human) (UniProt Q13523)
SBK1 (human) = SBK1 (human) (UniProt Q52WX2)
STK38 (human) = STK38 (human) (UniProt Q15208)
MAP3K15 (human) = MAP3K15 (human) (UniProt Q6ZN16)
MARK3 (human) = MARK3 (human) (UniProt P27448)
SNRK (human) = SNRK (human) (UniProt Q9NRH2)
STK39 (human) = STK39 (human) (UniProt Q9UEW8)
[6] = tested on: PIK3CA (human), P42336 [H1047Y]
MARK2 (human) = MARK2 (human) (UniProt Q7KZI7)
PI4KB (human) = PI4KB (human) (UniProt Q9UBF8)
NEK11 (human) = NEK11 (human) (UniProt Q8NG66)
SGK110 (human) = SGK110 (human) (UniProt P0C264)
[7] = tested on: KIT (human), P10721 [L576P]
CDK4 CCND1 (human) = CDK4 CCND1 (human) (UniProt P11802+P24385)
PRKG2 (human) = PRKG2 (human) (UniProt Q13237)
[8] = tested on: EGFR (human), P00533 [T790M]
ROCK1 (human) = ROCK1 (human) (UniProt Q13464)
YSK4 (human) = YSK4 (human) (UniProt Q56UN5)
HIPK3 (human) = HIPK3 (human) (UniProt Q9H422)
[9] = tested on: FLT3 (human), P36888 [R834Q]
[10] = tested on: ABL1 (human), P00519 [F317L]
[11] = tested on: ABL1 (human), P00519 [F317I]
[12] = tested on: ABL1 (human), P00519 [T315I]

Sequence of DSTYK (human) (Q6XUX3 whole entry, looked up): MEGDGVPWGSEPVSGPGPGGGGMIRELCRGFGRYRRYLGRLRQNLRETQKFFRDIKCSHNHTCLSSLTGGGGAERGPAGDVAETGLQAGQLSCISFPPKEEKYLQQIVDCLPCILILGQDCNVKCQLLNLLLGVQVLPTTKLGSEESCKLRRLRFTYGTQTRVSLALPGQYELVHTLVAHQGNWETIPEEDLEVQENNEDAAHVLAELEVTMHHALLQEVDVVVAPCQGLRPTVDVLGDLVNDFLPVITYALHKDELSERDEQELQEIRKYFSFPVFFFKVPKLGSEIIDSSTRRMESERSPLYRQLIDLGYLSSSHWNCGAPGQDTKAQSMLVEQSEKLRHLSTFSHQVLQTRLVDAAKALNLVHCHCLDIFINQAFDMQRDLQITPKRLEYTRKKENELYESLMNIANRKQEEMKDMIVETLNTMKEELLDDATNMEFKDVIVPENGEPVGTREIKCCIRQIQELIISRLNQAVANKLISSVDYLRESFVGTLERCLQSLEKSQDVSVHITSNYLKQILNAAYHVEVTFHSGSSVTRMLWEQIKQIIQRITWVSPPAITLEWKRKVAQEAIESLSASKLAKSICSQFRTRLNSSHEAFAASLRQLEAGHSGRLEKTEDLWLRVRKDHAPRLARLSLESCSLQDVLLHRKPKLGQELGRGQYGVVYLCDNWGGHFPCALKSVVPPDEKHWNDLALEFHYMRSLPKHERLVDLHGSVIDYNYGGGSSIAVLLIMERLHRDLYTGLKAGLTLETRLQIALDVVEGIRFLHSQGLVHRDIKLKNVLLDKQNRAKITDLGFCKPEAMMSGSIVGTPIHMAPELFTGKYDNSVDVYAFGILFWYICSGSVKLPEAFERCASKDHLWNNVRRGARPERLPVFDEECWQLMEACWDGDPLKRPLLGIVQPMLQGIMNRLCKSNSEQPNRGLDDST
Sequence of STK38 (human) (Q15208 whole entry, looked up): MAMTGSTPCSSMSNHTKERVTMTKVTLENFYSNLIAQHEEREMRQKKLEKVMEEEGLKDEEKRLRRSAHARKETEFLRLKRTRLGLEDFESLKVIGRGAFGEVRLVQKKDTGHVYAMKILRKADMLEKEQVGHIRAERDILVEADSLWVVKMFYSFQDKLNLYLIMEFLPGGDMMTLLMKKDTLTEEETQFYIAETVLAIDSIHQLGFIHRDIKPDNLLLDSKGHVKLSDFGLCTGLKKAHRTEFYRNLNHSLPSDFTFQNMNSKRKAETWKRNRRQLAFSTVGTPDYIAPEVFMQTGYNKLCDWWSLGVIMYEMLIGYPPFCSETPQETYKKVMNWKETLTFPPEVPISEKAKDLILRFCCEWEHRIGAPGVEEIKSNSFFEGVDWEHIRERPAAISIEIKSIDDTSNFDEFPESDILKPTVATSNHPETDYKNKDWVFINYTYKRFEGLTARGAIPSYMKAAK
Sequence of RPS6KB1 (human) (P23443 whole entry, looked up): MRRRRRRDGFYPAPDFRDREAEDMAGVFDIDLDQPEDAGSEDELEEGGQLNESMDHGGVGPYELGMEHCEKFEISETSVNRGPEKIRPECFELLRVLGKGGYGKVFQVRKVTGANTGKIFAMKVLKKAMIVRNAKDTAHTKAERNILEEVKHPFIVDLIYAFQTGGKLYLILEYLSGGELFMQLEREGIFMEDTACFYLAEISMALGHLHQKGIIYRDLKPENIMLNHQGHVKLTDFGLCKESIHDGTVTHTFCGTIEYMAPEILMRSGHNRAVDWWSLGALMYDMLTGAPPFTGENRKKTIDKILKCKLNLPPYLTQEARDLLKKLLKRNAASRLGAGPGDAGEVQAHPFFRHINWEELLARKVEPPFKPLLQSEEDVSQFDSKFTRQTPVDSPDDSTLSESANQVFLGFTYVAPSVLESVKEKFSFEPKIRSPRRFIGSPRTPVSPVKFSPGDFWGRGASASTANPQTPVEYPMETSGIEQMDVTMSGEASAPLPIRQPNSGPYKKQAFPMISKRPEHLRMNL
Sequence of PIK3CA (human), P42336 [E545A] (P42336 whole entry E545A, looked up): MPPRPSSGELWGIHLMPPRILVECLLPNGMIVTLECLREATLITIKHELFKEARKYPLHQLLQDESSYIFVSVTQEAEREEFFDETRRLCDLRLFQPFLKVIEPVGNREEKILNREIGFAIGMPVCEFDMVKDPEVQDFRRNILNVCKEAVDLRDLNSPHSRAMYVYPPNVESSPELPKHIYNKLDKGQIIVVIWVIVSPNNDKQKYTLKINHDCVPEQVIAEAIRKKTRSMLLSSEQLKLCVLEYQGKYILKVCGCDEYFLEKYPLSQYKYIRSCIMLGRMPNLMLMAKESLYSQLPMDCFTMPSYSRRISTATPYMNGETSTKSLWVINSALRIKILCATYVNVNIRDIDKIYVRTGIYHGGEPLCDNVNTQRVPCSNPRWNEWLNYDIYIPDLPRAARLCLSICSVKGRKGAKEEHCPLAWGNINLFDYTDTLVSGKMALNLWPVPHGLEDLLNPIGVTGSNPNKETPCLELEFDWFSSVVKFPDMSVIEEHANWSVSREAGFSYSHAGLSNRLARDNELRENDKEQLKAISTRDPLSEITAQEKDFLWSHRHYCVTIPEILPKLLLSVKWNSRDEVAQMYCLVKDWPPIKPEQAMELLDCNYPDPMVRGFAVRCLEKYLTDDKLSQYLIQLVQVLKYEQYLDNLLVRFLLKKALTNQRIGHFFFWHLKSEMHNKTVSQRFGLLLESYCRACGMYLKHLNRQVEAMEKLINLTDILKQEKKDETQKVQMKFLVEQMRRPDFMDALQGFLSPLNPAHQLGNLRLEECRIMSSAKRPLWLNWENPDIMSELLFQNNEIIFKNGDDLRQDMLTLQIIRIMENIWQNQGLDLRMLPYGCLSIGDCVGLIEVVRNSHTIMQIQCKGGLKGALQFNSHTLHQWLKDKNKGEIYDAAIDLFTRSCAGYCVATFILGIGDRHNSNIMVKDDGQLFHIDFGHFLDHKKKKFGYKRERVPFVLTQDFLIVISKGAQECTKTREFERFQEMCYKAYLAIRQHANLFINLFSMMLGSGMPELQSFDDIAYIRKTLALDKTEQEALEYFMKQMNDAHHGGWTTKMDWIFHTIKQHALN
Sequence of MARK3 (human) (P27448 whole entry, looked up): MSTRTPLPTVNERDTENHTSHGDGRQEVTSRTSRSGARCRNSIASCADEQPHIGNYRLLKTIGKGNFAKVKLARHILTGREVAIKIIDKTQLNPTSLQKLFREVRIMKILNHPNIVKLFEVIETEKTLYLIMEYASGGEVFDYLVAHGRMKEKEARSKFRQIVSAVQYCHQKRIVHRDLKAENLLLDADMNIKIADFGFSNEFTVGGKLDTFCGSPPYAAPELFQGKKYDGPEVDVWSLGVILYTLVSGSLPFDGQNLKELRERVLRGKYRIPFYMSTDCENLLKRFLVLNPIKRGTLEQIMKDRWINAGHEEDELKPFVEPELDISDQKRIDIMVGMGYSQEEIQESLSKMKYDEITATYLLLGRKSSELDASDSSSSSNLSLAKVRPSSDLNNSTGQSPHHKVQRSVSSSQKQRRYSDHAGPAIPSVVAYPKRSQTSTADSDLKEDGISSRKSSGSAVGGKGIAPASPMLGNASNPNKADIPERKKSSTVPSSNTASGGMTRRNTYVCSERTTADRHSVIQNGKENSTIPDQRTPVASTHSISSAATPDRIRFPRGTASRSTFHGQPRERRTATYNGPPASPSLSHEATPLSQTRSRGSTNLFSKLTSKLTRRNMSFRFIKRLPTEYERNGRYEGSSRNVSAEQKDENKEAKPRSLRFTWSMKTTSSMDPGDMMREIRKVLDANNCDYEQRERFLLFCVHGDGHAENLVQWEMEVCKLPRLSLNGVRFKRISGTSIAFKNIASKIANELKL
Sequence of MAP3K2 (human) (Q9Y2U5 whole entry, looked up): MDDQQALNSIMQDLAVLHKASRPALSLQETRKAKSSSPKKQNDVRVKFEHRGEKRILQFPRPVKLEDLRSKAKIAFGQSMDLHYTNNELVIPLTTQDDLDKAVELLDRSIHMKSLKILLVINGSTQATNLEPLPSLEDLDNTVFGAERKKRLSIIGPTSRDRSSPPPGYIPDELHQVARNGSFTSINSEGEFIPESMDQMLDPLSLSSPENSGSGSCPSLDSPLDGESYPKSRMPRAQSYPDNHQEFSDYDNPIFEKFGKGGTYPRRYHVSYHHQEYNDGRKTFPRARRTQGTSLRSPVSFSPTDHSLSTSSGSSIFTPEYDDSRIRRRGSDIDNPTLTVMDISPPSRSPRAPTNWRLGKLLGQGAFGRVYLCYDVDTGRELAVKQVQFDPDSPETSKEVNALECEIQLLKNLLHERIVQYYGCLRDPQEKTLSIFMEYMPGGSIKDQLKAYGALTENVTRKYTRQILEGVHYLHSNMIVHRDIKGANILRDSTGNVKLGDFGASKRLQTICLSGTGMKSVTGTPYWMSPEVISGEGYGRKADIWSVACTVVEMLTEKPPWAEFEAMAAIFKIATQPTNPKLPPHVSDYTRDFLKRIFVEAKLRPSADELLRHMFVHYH
Sequence of SBK1 (human) (Q52WX2 whole entry, looked up): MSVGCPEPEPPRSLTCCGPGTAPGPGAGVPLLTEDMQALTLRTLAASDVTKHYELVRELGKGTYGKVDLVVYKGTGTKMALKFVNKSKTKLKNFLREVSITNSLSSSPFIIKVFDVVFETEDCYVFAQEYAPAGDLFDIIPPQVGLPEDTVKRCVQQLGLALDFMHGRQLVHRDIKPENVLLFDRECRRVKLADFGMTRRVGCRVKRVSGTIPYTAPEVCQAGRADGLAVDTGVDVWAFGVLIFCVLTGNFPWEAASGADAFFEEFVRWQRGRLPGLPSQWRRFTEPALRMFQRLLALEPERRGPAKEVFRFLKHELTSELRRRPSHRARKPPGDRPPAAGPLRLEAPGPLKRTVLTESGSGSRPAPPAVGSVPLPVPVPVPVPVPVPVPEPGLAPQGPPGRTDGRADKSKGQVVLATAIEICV
Sequence of PIK3CA (human), P42336 [H1047Y] (P42336 whole entry H1047Y, looked up): as the sequence (P42336 whole entry E545A, looked up) above, with A545E, H1047Y counted along it
Sequence of PIK3CA (human), P42336 [H1047L] (P42336 whole entry H1047L, looked up): as the sequence (P42336 whole entry E545A, looked up) above, with A545E, H1047L counted along it
Sequence of PIK3CA (human), P42336 [C420R] (P42336 whole entry C420R, looked up): as the sequence (P42336 whole entry E545A, looked up) above, with C420R, A545E counted along it

Work on `CCN1CCN(Cc2ccc(NC(=O)c3ccc(C)c(/C=C/c4cnc(Nc5cc(N6CCNCC6)nc(C)n5)cn4)c3)cc2C(F)(F)F)CC1` yielded a kinase still bound, per cent of control [1] of 75%, a kinase still bound, per cent of control (SIK3 (human)) of 100% and a kinase still bound, per cent of control (CDK13 (human)) of 46%. For the same compound, the kinase still bound, per cent of control [2] was 80%, the kinase still bound, per cent of control (MTOR (human)) was 100% and the kinase still bound, per cent of control (RPS6KB1 (human)) was 6.2%. For the same compound, the kinase still bound, per cent of control (DSTYK (human)) was 69%, the kinase still bound, per cent of control (ERN1 (human)) was 71% and the kinase still bound, per cent of control (NIM1 (human)) was 100%. It also gave a kinase still bound, per cent of control [3] of 100%, a kinase still bound, per cent of control [4] of 97% and a kinase still bound, per cent of control (MAP3K2 (human)) of 0.4%. It also gave a kinase still bound, per cent of control (DYRK1A (human)) of 44%, a kinase still bound, per cent of control (PKN3 (M.tuberculosis)) of 100% and a kinase still bound, per cent of control (CASK (human)) of 72%. It also gave a kinase still bound, per cent of control (HIPK4 (human)) of 15%, a kinase still bound, per cent of control (GRK7 (human)) of 73% and a kinase still bound, per cent of control [5] of 93%. It also gave a kinase still bound, per cent of control (MAP2K5 (human)) of 0.1%, a kinase still bound, per cent of control (PRPF4B (human)) of 85% and a kinase still bound, per cent of control (SBK1 (human)) of 82%. For the same compound, the kinase still bound, per cent of control (STK38 (human)) was 79%, the kinase still bound, per cent of control (MAP3K15 (human)) was 100% and the kinase still bound, per cent of control (MARK3 (human)) was 58%. It also gave a kinase still bound, per cent of control (SNRK (human)) of 84%, a kinase still bound, per cent of control (STK39 (human)) of 100% and a kinase still bound, per cent of control [6] of 68%. For the same compound, the kinase still bound, per cent of control (MARK2 (human)) was 100%, the kinase still bound, per cent of control (PI4KB (human)) was 63% and the kinase still bound, per cent of control (NEK11 (human)) was 40%. The kinase still bound, per cent of control (SGK110 (human)) was 100%, the kinase still bound, per cent of control [7] was 0.2% and the kinase still bound, per cent of control (CDK4 CCND1 (human)) was 100%. The kinase still bound, per cent of control (PRKG2 (human)) was 88%, the kinase still bound, per cent of control [8] was 9.4% and the kinase still bound, per cent of control (ROCK1 (human)) was 100%. The kinase still bound, per cent of control (YSK4 (human)) was 0%, the kinase still bound, per cent of control (HIPK3 (human)) was 48% and the kinase still bound, per cent of control [9] was 8.6%.
In the case of `COc1cc(N2CCC(N3CCN(C)CC3)CC2)ccc1Nc1ncc(Cl)c(Nc2ccccc2S(=O)(=O)C(C)C)n1`, the kinase still bound, per cent of control [10] is reported as 0.7%, the kinase still bound, per cent of control [11] is reported as 0.45% and the kinase still bound, per cent of control [12] is reported as 0.1%.
`CCOc1cc(N2CCC(N3CCCCC3)CC2)ccc1Nc1nc(Nc2ccccc2S(=O)(=O)C(C)C)c2cn[nH]c2n1` gave a kinase still bound, per cent of control [1] of 4.8%, a kinase still bound, per cent of control (SIK3 (human)) of 100% and a kinase still bound, per cent of control (CDK13 (human)) of 100%. The kinase still bound, per cent of control [2] was 100%, the kinase still bound, per cent of control (MTOR (human)) was 86% and the kinase still bound, per cent of control (RPS6KB1 (human)) was 100%. It also gave a kinase still bound, per cent of control (DSTYK (human)) of 2.8%, a kinase still bound, per cent of control (ERN1 (human)) of 92% and a kinase still bound, per cent of control (NIM1 (human)) of 100%. For the same compound, the kinase still bound, per cent of control [3] was 100%, the kinase still bound, per cent of control [4] was 100% and the kinase still bound, per cent of control (MAP3K2 (human)) was 28%. The kinase still bound, per cent of control (DYRK1A (human)) was 63%, the kinase still bound, per cent of control (PKN3 (M.tuberculosis)) was 75% and the kinase still bound, per cent of control (CASK (human)) was 100%. For the same compound, the kinase still bound, per cent of control (HIPK4 (human)) was 44%, the kinase still bound, per cent of control (GRK7 (human)) was 100% and the kinase still bound, per cent of control [5] was 100%. The kinase still bound, per cent of control (MAP2K5 (human)) was 55%, the kinase still bound, per cent of control (PRPF4B (human)) was 100% and the kinase still bound, per cent of control (SBK1 (human)) was 57%. It also gave a kinase still bound, per cent of control (STK38 (human)) of 98%, a kinase still bound, per cent of control (MAP3K15 (human)) of 77% and a kinase still bound, per cent of control (MARK3 (human)) of 100%. It also gave a kinase still bound, per cent of control (SNRK (human)) of 40%, a kinase still bound, per cent of control (STK39 (human)) of 37% and a kinase still bound, per cent of control [6] of 100%. The kinase still bound, per cent of control (MARK2 (human)) was 86%, the kinase still bound, per cent of control (PI4KB (human)) was 58% and the kinase still bound, per cent of control (NEK11 (human)) was 100%. For the same compound, the kinase still bound, per cent of control (SGK110 (human)) was 100%, the kinase still bound, per cent of control [7] was 67% and the kinase still bound, per cent of control (CDK4 CCND1 (human)) was 82%. For the same compound, the kinase still bound, per cent of control (PRKG2 (human)) was 100%, the kinase still bound, per cent of control [8] was 0.25% and the kinase still bound, per cent of control (ROCK1 (human)) was 4.8%. The kinase still bound, per cent of control (YSK4 (human)) was 100%, the kinase still bound, per cent of control (HIPK3 (human)) was 79% and the kinase still bound, per cent of control [9] was 100%.
`CCN1CCN(Cc2ccc(NC(=O)c3ccc(C)c(Oc4ccnc5[nH]ccc45)c3)cc2C(F)(F)F)CC1` showed a kinase still bound, per cent of control [10] of 0.1%, a kinase still bound, per cent of control [11] of 0.05% and a kinase still bound, per cent of control [12] of 0%.
